The values below come from PMC8025584, “Identification of multipotent drugs for COVID-19 therapeutics with the evaluation of their SARS-CoV2 inhibitory activity” (Computational and Structural Biotechnology Journal, 2021).

Like-named read-outs stand apart in the source and are kept apart here.

As usually defined, the IC50 is the point on the concentration scale where inhibition reaches its midpoint.

The test system of data set [1] is SARS-CoV2 virus (IND/ILS-01/2020). The data set can be described thus: Drug assay: viral load by real-time RT-PCR in SARS-CoV2 infected Vero E6 cells. In kind it is cell-based. The settings on record: Vero E6, 0.1 MOI, 24 h treatment, cell-associated viral RNA by RT-PCR. (Real-time PCR tracks product formation cycle by cycle.)
A further data set can be described thus: in vitro. Conditions: monkey.
Details of data set [2]: method as in PMID 26506265, PMID 24466249, PMID 22454559. Conditions: cited from earlier work.
A further data set concerns SARS-CoV2. Also noted: method as in PMID 33330842. The settings on record: cited from earlier work.
The test system of the next data set is Vero E6 cells. Conditions: Vero E6, MTT, 0.01-20 µM.
In data set [3] the test system is differentially expressed human proteins in COVID-19. Conditions: cited from earlier work.
Setting [4] is: Severe acute respiratory syndrome coronavirus 2, Vero C1008.
The mark [5] stands for this setting: gene TNF, drug-gene interaction listed in DGIdb export, ref DGIdb.

In data set [1] (setting [4]), `Cc1ccc(-c2cc(C(F)(F)F)nn2-c2ccc(S(N)(=O)=O)cc2)cc1` [Celecoxib] returned an IC50 of 3.25 µM. In “in vitro”, this molecule displayed a CC50 of over 20 µM. In addition, the “can cross blood brain barrier” value in data set [2] is listed as “can cross blood brain barrier”.
Take `CCN(CCO)CCCC(C)Nc1ccnc2cc(Cl)ccc12` (stereo not drawn) [Hydroxychloroquine]: the half-inhibitory concentration (IC50) in data set [1] (setting [4]) is 5 µM. This molecule also displayed a CC50 in the data set “in vitro” of over 20 µM.
The matching figures for `OC(c1cc(C(F)(F)F)nc2c(C(F)(F)F)cccc12)C1CCCCN1` (stereo not drawn) [Mefloquine]: 0.37 µM and over 20 µM.
`CC(C)(O)c1ccccc1CC[C@@H](SCC1(CC(=O)O)CC1)c1cccc(/C=C/c2ccc3ccc(Cl)cc3n2)c1` [Montelukast] registered a CC50 in the data set “in vitro” of over 20 µM. Moreover, the “can cross blood brain barrier” value in data set [2] was “can cross blood brain barrier”.
Consider `OC(CNCC(O)C1CCc2cc(F)ccc2O1)C1CCc2cc(F)ccc2O1` (stereo not drawn) [Nebivolol], for which the midpoint of inhibition in data set [1] (setting [4]), the IC50, lay at 5.21 µM. For the same molecule, the CC50 in “in vitro” is over 20 µM. Further, the “can cross blood brain barrier” value in data set [2] is listed as “can cross blood brain barrier”. Further, in the data set with SARS-CoV2, the “inhibition of SARS-CoV2” value is recorded as “submicromolar range”.
The molecule Capreomycin came in with an IC50 in data set [1] of 1 µM. The molecule also had a CC50 with Vero E6 cells of over 20 µM.
Molecule Ivermectin had an IC50 in data set [1] of 5.54 µM. In the data set on Vero E6 cells, this molecule had a CC50 of 15 µM.
Consider REGRAMOSTIM, for which the interaction_types entry in data set [3] (gene CSF2RB, ref DGIdb) is given as “agonist”.
For RILONACEPT, the interaction_types entry in data set [3] (gene IL1RN, ref DGIdb) is listed as “binder”.
For SARGRAMOSTIM, in data set [3] (gene CSF2RB, ref DGIdb), the interaction_types entry was “agonist”.
As to THROMBIN, the interaction_types entry in data set [3] (gene F5, drug-gene interaction listed in DGIdb export, ref DGIdb) is “activator”.
As to TRASTUZUMAB EMTANSINE, in data set [3], the interaction_types entry was “inhibitor”.

B1: ASELIZUMAB (antibody, chains of the INN, looked up, V domains shown)
VH: EVQLVESGGGLVQPGGSLRLSCAASGFTFSTYAMSWVRQAPGKGLEWVASISTGGSTYYPDSVKGRFTISRDNAKNTLYLQMNSLRAEDTAVYYCARDYDGYFDYWGQGTLVTVSS
VL: DIQMTQSPSSLSASVGDRVTITCKASQSVDYDGDSYMNWYQQKPGKAPKLLIYAASNLESGIPSRFSGSGSGTDFTLTISSLQPEDFATYYCQQSNEDPWTFGQGTKVEIK
In the case of B1, the interaction_types result in data set [3] (gene SELL, ref DGIdb) is listed as “inhibitor”.

B2: CERTOLIZUMAB PEGOL (antibody, chains of the INN, looked up, V domains shown)
VH: EVQLVESGGGLVQPGGSLRLSCAASGYVFTDYGMNWVRQAPGKGLEWMGWINTYIGEPIYADSVKGRFTFSLDTSKSTAYLQMNSLRAEDTAVYYCARGYRSYAMDYWGQGTLVTVSS
VL: DIQMTQSPSSLSASVGDRVTITCKASQNVGTNVAWYQQKPGKAPKALIYSASFLYSGVPYRFSGSGSGTDFTLTISSLQPEDFATYYCQQYNIYPLTFGQGTKVEIK
modifications: Fab' PEGylated
Take B2: the interaction_types entry in data set [3] (setting [5]) is recorded as “inhibitor”.

B3: OTLERTUZUMAB (antibody, chains of the INN, looked up, V domains shown)
VH: EVQLVQSGAEVKKPGESLKISCKGSGYSFTGYNMNWVRQMPGKGLEWMGNIDPYYGGTTYNRKFKGQVTISADKSISTAYLQWSSLKASDTAMYYCARSVGPFDSWGQGTLVTVSS
VL: EIVLTQSPATLSLSPGERATLSCRASENVYSYLAWYQQKPGQAPRLLIYFAKTLAEGIPARFSGSGSGTDFTLTISSLEPEDFAVYYCQHHSDNPWTFGQGTKVEIK
In the case of B3, the interaction_types result in data set [3] (gene CD37, ref DGIdb) is on record as “antibody”.

B4: DACLIZUMAB (antibody, chains of the INN, looked up, V domains shown)
VH: QVQLVQSGAEVKKPGSSVKVSCKASGYTFTSYRMHWVRQAPGQGLEWIGYINPSTGYTEYNQKFKDKATITADESTNTAYMELSSLRSEDTAVYYCARGGGVFDYWGQGTLVTVSS
VL: DIQMTQSPSTLSASVGDRVTITCSASSSISYMHWYQQKPGKAPKLLIYTTSNLASGVPARFSGSGSGTEFTLTISSLQPDDFATYYCHQRSTYPLTFGQGTKVEVK
As to B4, the interaction_types result in data set [3] (gene IL2RG, ref DGIdb) is given as “inhibitor”.

B5: LENOGRASTIM (protein, UniProt P09919 31-207, looked up)
Granulocyte …: TPLGPASSLPQSFLLKCLEQVRKIQGDGAALQEKLVSECATYKLCHPEELVLLGHSLGIPWAPLSSCPSQALQLAGCLSQLHSGLFLYQGLLQALEGISPELGPTLDTLQLDVADFATTIWQQMEELGMAPALQPTQGAMPAFASAFQRRAGGVLVASHLQSFLEVSYRVLRHLAQP
modifications: glycosylated
Take B5: the interaction_types entry in data set [3] (gene CSF3R, ref DGIdb) was “agonist”.

B6: TABALUMAB (antibody, chains of the INN, looked up, V domains shown)
VH: QVQLQQWGAGLLKPSETLSLTCAVYGGSFSGYYWSWIRQPPGKGLEWIGEINHSGSTNYNPSLKSRVTISVDTSKNQFSLKLSSVTAADTAVYYCARGYYDILTGYYYYFDYWGQGTLVTVSS
VL: EIVLTQSPATLSLSPGERATLSCRASQSVSRYLAWYQQKPGQAPRLLIYDASNRATGIPARFSGSGSGTDSTLTISSLEPEDFAVYYCQQRSNWPRTFGQGTKVEIK
In the case of B6, the interaction_types result in data set [3] (gene TNFSF13B, drug-gene interaction listed in DGIdb export, ref DGIdb) is given as “inhibitor”.

B7: ONERCEPT (protein, UniProt P19438 30-211, looked up)
extracellular domain: LVPHLGDREKRDSVCPQGKYIHPQNNSICCTKCHKGTYLYNDCPGPGQDTDCRECESGSFTASENHLRHCLSCSKCRKEMGQVEISSCTVDRDTVCGCRKNQYRHYWSENLFQCFNCSLCLNGTVHLSCQEKQNTVCTCHAGFFLRENECVSCSNCKKSLECTKLCLPQIENVKGTEDSGTT
modifications: extracellular domain
Regarding B7, the interaction_types entry in data set [3] (setting [5]) was “inhibitor”.

B8: PEGSUNERCEPT (protein, UniProt P19438 30-211, looked up)
extracellular domain: B7 extracellular domain
modifications: extracellular domain PEGylated
On to B8, for which the interaction_types entry in data set [3] (setting [5]) is reported as “inhibitor”.
